From PubChem BioAssay AID179 (DTP/NCI, 2004)
The source made the active and inactive calls.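 Rule for the calls: active = compounds giving half or more protection of infected cells from virus-caused growth loss, again on retest; inactive = the rest.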

Test system: CEM cells HIV-1 protection, formazan growth assay
Assay: NCI AIDS Antiviral Assay
Conditions: for IC50: measured here: growth of uninfected CEM cells
Method: The ability of compounds to protect human CEM cells from HIV-1 infection is measured as a screen for new compounds capable of inhibiting the HIV virus. Five concentrations of drug were tested on uninfected and infected cells and cell growth was measured using a soluble formazan assay. […] Compounds that provided at least 50% protection were retested. Compounds that provided at least 50% protection on retest were listed as moderately active. Compounds that reproducibly provided 100% protection were listed as confirmed active. […] Note that the inability to provide protection could be due to toxicity.

Compound	EC50 [µM]	IC50 [µM]	outcome
CN1C(=O)CC2C(=O)N(Cc3ccccc3)C(=O)C2C1=O (stereo not given)	> 347	> 347	
O=C(/C=C/c1ccc[nH]1)c1ccccc1	> 347	120	
S=C(NNC1=NCCCCN1)Nc1ccccc1	> 200	112	
CC12CCC3c4ccc(OS(=O)(=O)O)cc4CCC3C1CC(O)C2O (stereo not given)			inactive
O=C1OCC(Cl)O1 (stereo not given)	> 200	> 200	
N#C/C(=C\c1ccc(O)c(O)c1)C(=S)NCc1ccccc1	> 200	32.4	
O=c1c2c(F)c(F)c(F)c(F)c2sc2nccn12	> 200	3.89	
CC(=O)Nc1cnc2c(nc3cc(C)ccn32)c1C	> 74.1	> 74.1	
Cc1ccc(S(=O)(=O)c2[nH]cc(-c3c[nH]c(S(=O)(=O)c4ccc(C)cc4)c3C3CCCCC3)c2C2CCCCC2)cc1			inactive
Nc1nc2c3nc(Nc4ccccc4)sc3nc(=S)n2c2sc(Nc3ccccc3)nc12	> 11	> 11	
O=C(O)C(=O)Cc1ccc(O)cc1	> 200	> 200	
C[C@]12OC(=O)[C@]3(O)CC[C@H]4[C@@H](C[C@@H](O)[C@@]5(Cl)CC=CC(=O)[C@]45C)[C@]45OCC6C(=O)O[C@@H]1C[C@@]6(C)[C@H](C4=O)[C@@]32O5 (stereo not given in full)	> 2	0.871	
Nc1ccc(/C=C/c2ccnc3ccccc23)cc1	19.5	> 200	
N#C/C(=C\c1ccc(C#N)cc1)C(=O)O	> 36.3	> 36.3	
Oc1c(CN2CCCC2)ccc2ccccc12	> 200	> 200	
O=C1C(c2ccc3ccccc3n2)=C(O)c2ccccc21			inactive
Cn1nc(-c2ccc3c(c2)OCO3)[n+]([O-])c2c(=O)n(C)c(=O)nc1-2	> 200	0.38	
O=C(O)CNC(=O)OCCCCOC(=O)NCC(=O)O	> 851	> 851	
COc1ccc(C2(OC)Oc3ccccc3-c3nc4ccccc4nc32)cc1 (stereo not given)	> 69.2	> 69.2	
Cc1cc(S(=O)(=O)Nc2n[nH]c(N)n2)c(SCC(=O)O)cc1Cl	> 200	> 200	
N=C(/C=C/c1ccc(-c2cn3cc(/C=C/C(=N)N4CCCC4)ccc3n2)cc1)N1CCCC1	25.1	64.6	
CCC1(O)N=C(c2ccccc2)c2ccccc2-n2cccc21 (stereo not given)	> 200	166	

Compound	EC50 [µM]	IC50 [µM]	outcome
CCOP(=O)(OCC)/C(C#N)=C/c1cccc(F)c1	> 331	> 331	
O=C(O)CC1CC=CCC1CC(=O)O (stereo not given)	> 200	> 200	
COC(=O)/C(C#N)=C/c1ccco1	> 200	> 200	
Cn1c2ccccc2n2c(=O)c(-c3ccc(Cl)cc3)nnc12	> 200	> 200	
Nc1ccccc1-c1nc2c(ccc3ccccc32)[nH]1	> 72.4	57.5	
Cc1ccc(/C=N/Nc2ncccn2)s1	> 200	> 200	
CC(C)(C)[Si](C)(C)OCC1OC(n2cnc3c(=O)[nH]c(NCc4ccccc4)nc32)C(O[Si](C)(C)C(C)(C)C)C1O[Si](C)(C)C(C)(C)C (stereo not given)	> 200	141	
O=C(c1ccccc1)N1CCCCC(Cl)C1=O (stereo not given)	> 1000	> 1000	
CCOP(=O)(/N=C1/C2CCC(C2)C1C)OCC (stereo not given)	> 234	> 234	
c1ccc(P(CCP(CCP(c2ccccc2)c2ccccc2)c2ccccc2)CCP(c2ccccc2)c2ccccc2)cc1 (stereo not given)	> 10.7	> 10.7	
Cn1cc(NC(=O)c2nc(NC(=O)c3nc(NC(=O)c4ccc(C(=O)Nc5cn(C)c(C(=O)Nc6cn(C)c(C(=O)Nc7cn(C)c(C(=O)NCCC(=N)N)n7)n6)n5)nc4)cn3C)cn2C)nc1C(=O)NCCC(=N)N	> 50.1	1.17	
COc1ccc(-c2cn3ccsc3n2)cc1	> 195	162	
CC(=O)O[C@@H]1CC[C@]2(C)C3CC[C@]4(C)C(C(C)CCc5nc6ccccc6[nH]5)CCC4C3[C@H](OC(C)=O)C[C@@H]2C1 (stereo not given in full)	> 50.1	12.9	
Nc1ccc(O)c(C(=O)[O][Sn]([c]2ccccc2)([c]2ccccc2)[c]2ccccc2)c1	> 2	0.129	
O=S1(=O)CC2(N3CCOCC3)CCCC21 (stereo not given)	> 1070	229	
O=C(CCCC[n+]1ccccc1)Sc1ccccc1C(=O)Nc1ccc(S(=O)(=O)c2ccc(NS(=O)(=O)Cc3ccccc3[N+](=O)[O-])cc2)cc1	9.55	> 200	
COc1ccc(NC2C(=O)C3(C)CCC2C3(C)C)cc1 (stereo not given)			inactive
O=C(O)C1OC(Oc2ccc3oc4ccccc4c(=O)c3c2)C(O)C(O)C1O (stereo not given)	> 174	145	
NC(=O)C1(c2ccccc2)Nc2ccccc2S1 (stereo not given)	> 977	102	
C1CSCCSCCSCCSCCSCCS1	> 14.5	> 14.5	
CC(C)CCC[C@@H](C)C1CCC2C3CCC4C[C@@](O)(C(c5cc(Cl)c(O)c(C(=O)O)c5)c5cc(Cl)c(O)c(C(=O)O)c5)CC[C@]4(C)C3CC[C@@]21C (stereo not given in full)	> 200	25.1	
Cc1ccc(S(=O)(=O)CC2(Br)Cc3ccccc3C2=O)cc1 (stereo not given)	> 200	5.75	

Compound	EC50 [µM]	IC50 [µM]	outcome
O=C(O)C1=C(Cl)c2ccccc2S1(=O)=O			inactive
O=[N+]([O-])C(Cl)C(Cl)C(Cl)=C(Cl)Cl (stereo not given)	> 200	> 200	
CN1CCN(C(=O)c2cccc3cccc(C(=O)O)c23)CC1	> 832	724	
Cc1ccc(NC(=O)C2C(=O)N(c3ccc(C)c(C)c3)C(=O)/C2=N/O)cc1C (stereo not given)	> 19.1	> 19.1	
COP(=O)(CC(=O)C1OC(C)(C)OC1C(O)COCc1ccccc1)OC (stereo not given)	> 324	> 324	
COI1NC(=O)c2ccccc21	17.4	295	
O=C1c2ccccc2C(=O)N1CC(O)COc1cccc2ccccc12 (stereo not given)	> 200	> 200	
O=C(Nc1nc(C23CC4CC(CC(C4)C2)C3)cs1)c1cc2ccc(O)cc2oc1=O	> 200	7.41	
C#CCSc1nnnn1-c1ccccc1	> 200	3.24	
CCOC(=O)N(CCCCCCNC(c1ccccc1)S(=O)(=O)O)c1ccccc1 (stereo not given)	> 200	1.82	
COc1ccc(/C=C2\SC(=S)N(/C=C(/C#N)C(=O)c3ccc4ccccc4c3)C2=O)cc1OC	> 200	11.7	
CC1OC(OCC2OC(Oc3ccc4c(=O)c(-c5ccc6c(c5)OCO6)coc4c3)C(O)C(O)C2O)C(O)C(O)C1O (stereo not given)	129	182	
Cn1ccc(-c2cn(C)c3ccnn3c2=O)n1	> 200	> 200	
CCOC(=O)c1c(NC(=O)c2ccc(OC)cc2)sc2c1CCCC2	> 151	> 151	
Cc1ccc(Nc2nc3[nH]ccc3c(=O)[nH]2)cc1	> 200	> 200	
Cc1cc(C)c(NS(=O)c2cccc([N+](=O)[O-])c2)c(C)c1 (stereo not given)	> 30.9	> 30.9	
Cn1c(=O)c2c(nc(N)n2C2OC(CO)C(O)C2O)n(C)c1=O (stereo not given)	> 200	> 200	
CC#CC(O)(C(=O)OC1CCC2CCC1N2C)C1CCCC1 (stereo not given)	> 200	> 200	
CC(=O)c1cccc(N2COC(C)(C)c3nc4ccccc4n3C2)c1	> 200	107	
[N-]=[N+]=Nc1ccc(CNc2cc(=O)[nH]c(=O)[nH]2)cc1	> 200	> 200	
O=C1OCC/C1=C\c1ccc(O)cc1	> 1320	240	
COc1cc2c(c(OC)c1OC)-c1ccc(=O)c(OC)cc1C(NC(C)=O)CC2 (stereo not given)			inactive

Compound	EC50 [µM]	IC50 [µM]	outcome
C=CC1CN2CCC1CC2C(=O)c1ccnc2ccccc12 (stereo not given)	> 200	97.7	
CCOC(=O)[C@@H]1[C@@H]2NC(=O)N[C@@]1(C)Oc1ccccc12	> 200	> 200	
N=C(N)Cc1ccc(NC(=O)c2ccc(C(=O)Nc3ccc(CC(=N)N)cc3)cc2)cc1	> 70.8	22.4	
CCC(=O)C1(N2CCOCC2)CCN(CCCC(=O)c2ccc(F)cc2)CC1	> 200	> 200	
CC1=CC[C@H](C[C@H](C#CCCCC2OCCO2)O[Si](C(C)C)(C(C)C)C(C)C)C(=O)CC1	> 200	9.77	
COc1c(Br)cc2ccccc2c1-c1c(OC)c(Br)cc2ccccc12	17.4	> 100	
O=Nc1c(-c2ccccc2)[nH]oc1=O	> 200	36.3	
Cc1c(O)c(O)c(C)c(CCN)c1O	> 200	11	
COC(=O)c1c(C(=O)OC)c2ccccn2c1-c1cc(OC)c(Br)c(=O)o1	> 200	> 200	
CC(=O)NC1Cc2ccccc2C1=O (stereo not given)	> 200	> 200	
N#Cc1nc(-c2ccccn2)oc1N	> 200	> 200	
CC(C)(C)C1CCC2c3c([nH]c4ccccc34)C3C(=O)N(c4ccccc4Cl)C(=O)C3C2C1 (stereo not given)	> 200	16.6	
Oc1cc(O)c2c(c1)OC(c1ccc(O)c(O)c1)C(OC1(c3cc(O)c(O)c(O)c3)Oc3cc(O)cc(O)c3C(O)C1O)C2 (stereo not given)	> 200	11.5	
Cc1ccc(S(=O)(=O)C2c3nc4ccccc4cc3-c3nc4ccccc4nc32)cc1 (stereo not given)	> 32.4	> 32.4	
O=C(c1ccccc1)[C@H]1Nc2ccc(Cl)cc2[C@H]2CCC[C@@H]12	> 4.68	> 4.68	
COc1ccc(CN2CCCN(Cc3ccc(OC)cc3)C2c2cc([N+](=O)[O-])ccc2O)cc1	> 200	28.8	
NC(=O)c1cc2cc(O)c(O)cc2cn1	> 209	12.6	
COC(=O)C1Cc2c([nH]c3ccccc23)[C@H](CC(C)C)N1 (stereo not given in full)			inactive
c1ccc2c(c1)SC1Sc3ccccc3[S+]21 (stereo not given)	> 200	11.5	
CSC(=NCCCCN=C(NS(=O)(=O)c1ccc(Cl)cc1)SC)NS(=O)(=O)c1ccc(Cl)cc1	> 200	> 200	
